The values below come from patent US11555821B2, “CA IX-NIR dyes and their uses” (On Target Laboratories, Inc., priority 2016, dated 2023).

For data set [1] the following is noted: in the presence and absence of light; cited from earlier work.
The subject of data set [2] is SKRC52 human renal tumor xenograft. Kind of data set: Whole body fluorescence imaging of SKRC52 human renal tumor xenograft bearing mouse (IVIS imager). It counts as in vivo. The following applies: 10 nmol. On the procedure: SKRC52 human renal tumor xenograft bearing mouse was injected with 10 nmol of 54 and imaged with IVIS imager (ex=745 nm, em=ICG, exposure time=1 s) at different time intervals.
SKRC52 human renal tumor xenograft bearing mouse was injected with 10 nmol of 55 and imaged with IVIS imager (ex=745 nm, em=ICG, exposure time=1 s) at different time intervals.
SKRC52 human renal tumor xenograft bearing mouse was injected with 10 nmol of 60 and imaged with IVIS imager (ex=745 nm, em=ICG, exposure time=[…]) at different time intervals.
SKRC52 human renal tumor xenograft bearing mouse was injected with 10 nmol of 61 and imaged with IVIS imager (ex=745 nm, em=ICG, exposure time=[…]) at different time intervals.
SKRC52 human renal tumor xenograft bearing mouse was injected with 10 nmol of 62 and imaged with IVIS imager (ex=745 nm, em=ICG, exposure time=1 s) at different time intervals.
SKRC52 human renal tumor xenograft bearing mouse was injected with 10 nmol of 65 and imaged with IVIS imager (ex=745 nm, em=ICG, exposure time=1 s) at different time intervals.
SKRC52 human renal tumor xenograft bearing mouse was injected with 10 nmol of 69 and imaged with IVIS imager (ex=745 nm, em=ICG, exposure time=1 s) at different time intervals.
SKRC52 human renal tumor xenograft bearing mouse was injected with 10 nmol of 70 and imaged with IVIS imager (ex=745 nm, em=ICG, exposure time=1 s) at different time intervals.
SKRC52 human renal tumor xenograft bearing mouse was injected with 10 nmol 72 and imaged with IVIS imager (ex=745 nm, em=ICG, exposure time=1 s) at different time intervals
SKRC52 human renal tumor xenograft bearing mouse was injected with 10 nmol of 76 and imaged with IVIS imager (ex=745 nm, em=ICG, exposure time=1 s) at different time intervals
SKRC52 human renal tumor xenograft bearing mouse was injected with 10 nmol of 77 and imaged with IVIS imager (ex=745 nm, em=ICG, exposure time=1 s) at different time intervals
SKRC52 human renal tumor xenograft bearing mouse was injected with 10 nmol of 80 and imaged with IVIS imager (ex=745 nm, em=ICG, exposure time=1 s) at different time intervals
SKRC52 human renal tumor xenograft bearing mouse was injected with 10 nmol of 81 and imaged with IVIS imager (ex=745 nm, em=ICG, exposure time=1 s) at different time intervals
SKRC52 human renal tumor xenograft bearing mouse was injected with 10 nmol of 85 and imaged with IVIS imager (ex=745 nm, em=ICG, exposure time=1 s) at different time intervals
SKRC52 human renal tumor xenograft bearing mouse was injected with 10 nmol of 86 and imaged with IVIS imager (ex=745 nm, em=ICG, exposure time=1 s) at different time intervals
SKRC52 human renal tumor xenograft bearing mouse was injected with 10 nmol of 87 and imaged with IVIS imager (ex=745 nm, em=ICG, exposure time=1 s) at different time intervals
SKRC52 human renal tumor xenograft bearing mouse was injected with 10 nmol of 88 and imaged with IVIS imager (ex=745 nm, em=ICG, exposure time=1 s) at different time intervals
SKRC52 human renal tumor xenograft bearing mouse was injected with 10 nmol of 89 and imaged with IVIS imager (ex=745 nm, em=ICG, exposure time=1 s) at different time intervals
SKRC52 human renal tumor xenograft bearing mouse was injected with 10 nmol of 90 and imaged with IVIS imager (ex=745 nm, em=ICG, exposure time=1 s) at different time intervals
SKRC52 human renal tumor xenograft bearing mouse was injected with 10 nmol of 93 and imaged with IVIS imager (ex=745 nm, em=ICG, exposure time=1 s) at different time intervals
SKRC52 human renal tumor xenograft bearing mouse was injected with 10 nmol of 95 and imaged with IVIS imager (ex=745 nm, em=ICG, exposure time=1 s) at different time intervals
SKRC52 human renal tumor xenograft bearing mouse was injected with 10 nmol of 99 and imaged with IVIS imager (ex=745 nm, em=ICG, exposure time=1 s) at different time intervals […]
On the technique in general: In xenograft studies the graft and the host belong to different species.

The mark [3] stands for this setting: imaged at different time intervals.
The mark [4] stands for this setting: within 2-24 hours after administering to the animal.

SMILES strings stand for the structures.

On to `CC1(C)C(=CC=C2CCCC(C=CC3=[N+](CCCCS(=O)(=O)[O-])c4ccc5ccccc5c4C3(C)C)=C2Cl)N(CCCCS(=O)(=O)[O-])c2ccc3ccccc3c21.[Na+]` [IR820], for which the in vitro cytotoxicity entry in data set [1] is “no major cytotoxic effects”.
For the molecule `CC(C)C[C@H](Nc1c(F)c(S(N)(=O)=O)c(F)c(F)c1S(=O)(=O)CCC(=O)NCCOCCOCCC(=O)N[C@@H](Cc1ccc(OC2=C(/C=C/C3=[N+](CCCCS(=O)(=O)[O-])c4ccc(S(=O)(=O)O)cc4C3(C)C)CCC/C2=C\C=C2\N(CCCCS(=O)(=O)O)c3ccc(S(=O)(=O)O)cc3C2(C)C)cc1)C(=O)O)C(=O)OCc1ccccc1` [Compound 76], in data set [2] (setting [3]), the “tumor-to-background ratio (TBR)” value is listed as “excellent” and the tumor-to-skin ratio result was “excellent”. Besides, in data set [2], the “accumulation retained in the tumor (fluorescence over 24 hours)” value is “very high accumulation”. For the same molecule, the whole-body imaging data entry in data set [2] (setting [4]) is given as “very good”.
On to `CC1(C)C(/C=C/C2=C(Oc3ccc(C[C@H](NC(=O)CCOCCOCCNC(=O)CCS(=O)(=O)c4ccc(S(N)(=O)=O)cc4NC4CCCCCCC4)C(=O)O)cc3)C(=C/C=C3/N(CCCCS(=O)(=O)O)c4ccc(S(=O)(=O)O)cc4C3(C)C)/CCC2)=[N+](CCCCS(=O)(=O)[O-])c2ccc(S(=O)(=O)O)cc21` [Compound 85], for which, in data set [2], the “tumor fluorescence intensity and tumor-to-background ratio compared to the compound 61” value was “less”; the “accumulation retained in the tumor (fluorescence over 24 hours)” value is “very high accumulation”. Besides, in data set [2] (setting [3]), the “tumor-to-background ratio (TBR)” value is recorded as “excellent” and the tumor-to-skin ratio entry is on record as “excellent”. Moreover, the whole-body imaging data result in data set [2] (setting [4]) is on record as “very good”.
Turning to `CN1/C(=C/C=C2\CCCC(/C=C/C3=[N+](C)c4ccc5ccccc5c4C3(C)C)=C2Cl)C(C)(C)c2c1ccc1ccccc21.Cc1ccc(S(=O)(=O)[O-])cc1` [IR813], in data set [1], the in vitro cytotoxicity entry is given as “significant values of cytotoxicity”.
Take `CC1(C)C(/C=C/C2=C(Oc3ccc(C[C@H](NC(=O)CCS(=O)(=O)c4c(F)c(F)c(S(N)(=O)=O)c(F)c4NC4CCCCCCC4)C(=O)O)cc3)C(=C/C=C3/N(CCCCS(=O)(=O)O)c4ccc(S(=O)(=O)O)cc4C3(C)C)/CCC2)=[N+](CCCCS(=O)(=O)[O-])c2ccc(S(=O)(=O)O)cc21` [Compound 62]: in data set [2] (setting [3]), the “tumor-to-background ratio (TBR)” value is on record as “excellent” and the tumor-to-skin ratio result is “excellent”. Also, the “accumulation retained in the tumor (fluorescence over 24 hours)” value in data set [2] is recorded as “very high accumulation”. The whole-body imaging data entry in data set [2] (setting [4]) is “very good”.
For `CC1(C)C(/C=C/C2=C(Oc3ccc(C[C@H](NC(=O)CCOCCOCCNC(=O)CCS(=O)(=O)c4c(F)c(F)c(S(N)(=O)=O)c(F)c4NC4CCC(F)(F)CC4)C(=O)O)cc3)C(=C/C=C3/N(CCCCS(=O)(=O)O)c4ccc(S(=O)(=O)O)cc4C3(C)C)/CCC2)=[N+](CCCCS(=O)(=O)[O-])c2ccc(S(=O)(=O)O)cc21` [Compound 72], in data set [2] (setting [3]), the “tumor-to-background ratio (TBR)” value is listed as “excellent” and the tumor-to-skin ratio entry is listed as “excellent”. Also, the “accumulation retained in the tumor (fluorescence over 24 hours)” value in data set [2] is “very high accumulation”. Besides, the whole-body imaging data entry in data set [2] (setting [4]) was “very good”.
With `CC1(C)C(/C=C/C=C/C=C/C=C2\N(CCCCS(=O)(=O)[O-])c3ccc4ccccc4c3C2(C)C)=[N+](CCCCS(=O)(=O)[O-])c2ccc3ccccc3c21.[Na+]` [IR125], in data set [1], the in vitro cytotoxicity entry is on record as “significant values of cytotoxicity”.
On to `CC1(C)C(/C=C/C2=C(Oc3ccc(C[C@H](NC(=O)CCOCCOCCNc4c(F)c(S(N)(=O)=O)c(F)c(F)c4S(=O)(=O)CCO)C(=O)O)cc3)C(=C/C=C3/N(CCCCS(=O)(=O)O)c4ccc(S(=O)(=O)O)cc4C3(C)C)/CCC2)=[N+](CCCCS(=O)(=O)[O-])c2ccc(S(=O)(=O)O)cc21` [Compound 86], for which the “brightness compared to 60 and 61” value in data set [2] is listed as “less brighter”. Besides, in data set [2] (setting [4]), the whole-body imaging data result is “very good”.
With `CC1(C)C(/C=C/C2=C(Oc3ccc(C[C@H](NC(=O)CCOCCOCCNC(=O)CCS(=O)(=O)c4c(F)c(F)c(S(N)(=O)=O)c(F)c4NC4CCCCC4)C(=O)O)cc3)C(=C/C=C3/N(CCCCS(=O)(=O)O)c4ccc(S(=O)(=O)O)cc4C3(C)C)/CCC2)=[N+](CCCCS(=O)(=O)[O-])c2ccc(S(=O)(=O)O)cc21` [Compound 60], in data set [2] (setting [3]), the “tumor-to-background ratio (TBR)” value is reported as “excellent” and the tumor-to-skin ratio entry was “excellent”. In addition, the “accumulation retained in the tumor (fluorescence over 24 hours)” value in data set [2] was “very high accumulation”. Moreover, the whole-body imaging data result in data set [2] (setting [4]) is reported as “very good”.
With `CC1(C)C(=CC=C2CCCC(C=CC3=[N+](CCCCS(=O)(=O)[O-])c4ccc(S(=O)(=O)O)cc4C3(C)C)=C2Oc2ccc(CC(NC(=O)CCOCCOCCNC(=O)CCS(=O)(=O)c3c(F)c(F)c(S(N)(=O)=O)c(F)c3NC(c3ccccc3)c3ccccc3)C(=O)O)cc2)N(CCCCS(=O)(=O)O)c2ccc(S(=O)(=O)O)cc21` (stereo not shown) [Compound 88], in data set [2] (after 8 hours of administering), the whole-body imaging data result is “good”. Further, in data set [2] (at 24 hour time point), the “tumor-to-background ratio (TBR)” value is recorded as “excellent” and the tumor-to-skin ratio result was “excellent”.
Regarding `CN(C)C(N(c1c(F)c(S(N)(=O)=O)c(F)c(F)c1S(=O)(=O)CCC(=O)NCCOCCOCCC(=O)N[C@@H](Cc1ccc(OC2=C(/C=C/C3=[N+](CCCCS(=O)(=O)O)c4ccc(S(=O)(=O)O)cc4C3(C)C)CCC/C2=C\C=C2\N(CCCCS(=O)(=O)O)c3ccc(S(=O)(=O)O)cc3C2(C)C)cc1)C(=O)O)C1CCCCCCC1)=[N+](C)C` [Compound 104], in data set [2] (setting [3]), the “tumor-to-background ratio (TBR)” value is “excellent” and the tumor-to-skin ratio entry was “excellent”. The “accumulation retained in the tumor (fluorescence over 24 hours)” value in data set [2] is recorded as “very high accumulation”. In addition, the whole-body imaging data entry in data set [2] (setting [4]) is “good”.
For the molecule `CC(C)C[C@H](Nc1c(F)c(S(N)(=O)=O)c(F)c(F)c1S(=O)(=O)CCC(=O)NCCOCCOCCC(=O)N[C@@H](Cc1ccc(OC2=C(/C=C/C3=[N+](CCCCS(=O)(=O)[O-])c4ccc(S(=O)(=O)O)cc4C3(C)C)CCC/C2=C\C=C2\N(CCCCS(=O)(=O)O)c3ccc(S(=O)(=O)O)cc3C2(C)C)cc1)C(=O)O)C(=O)O` [Compound 77], in data set [2] (setting [3]), the “tumor-to-background ratio (TBR)” value is “excellent” and the tumor-to-skin ratio entry is reported as “excellent”. For the same molecule, the “accumulation retained in the tumor (fluorescence over 24 hours)” value in data set [2] is on record as “very high accumulation”. For the same molecule, in data set [2] (setting [4]), the whole-body imaging data result is listed as “very good”.
